Data set [1] in a line: Effect on endogenous p97 protein level in HEK293T cells up to 40 uM after 16 hrs by immunoblot analysis. The note with it: human, hek-293t. In kind it is ADME, cell-based. In general terms: A western blot detects proteins with antibodies after separation by electrophoresis.
Data set [2] can be described thus: Terminal phase half life in human liver microsomes at 1 uM in presence of UDPGA by LC-MS/MS analysis. Particulars: read-out: beta t1/2. In kind it is ADME. On the technique in general: Liver microsomes are vesicles of endoplasmic reticulum, rich in cytochrome P450 enzymes.
Data set [3] in a line: Terminal phase half life in mouse liver microsomes at 1 uM in presence of UDPGA by LC-MS/MS analysis. In kind it is ADME. Particulars: read-out: beta t1/2.
In data set [4] the target is Transitional endoplasmic reticulum ATPase (Homo sapiens) (UniProt P55072). Nature of the data set: Inhibition of p97 in HEK293T cells assessed as induction of ER-stress by measuring ATF4 expression at 20 uM after 16 hrs by immunoblot analysis. It counts as cell-based. The note with it: HEK-293T.
Sequence of Transitional endoplasmic reticulum ATPase (Homo sapiens) (P55072 2-806 limits assumed): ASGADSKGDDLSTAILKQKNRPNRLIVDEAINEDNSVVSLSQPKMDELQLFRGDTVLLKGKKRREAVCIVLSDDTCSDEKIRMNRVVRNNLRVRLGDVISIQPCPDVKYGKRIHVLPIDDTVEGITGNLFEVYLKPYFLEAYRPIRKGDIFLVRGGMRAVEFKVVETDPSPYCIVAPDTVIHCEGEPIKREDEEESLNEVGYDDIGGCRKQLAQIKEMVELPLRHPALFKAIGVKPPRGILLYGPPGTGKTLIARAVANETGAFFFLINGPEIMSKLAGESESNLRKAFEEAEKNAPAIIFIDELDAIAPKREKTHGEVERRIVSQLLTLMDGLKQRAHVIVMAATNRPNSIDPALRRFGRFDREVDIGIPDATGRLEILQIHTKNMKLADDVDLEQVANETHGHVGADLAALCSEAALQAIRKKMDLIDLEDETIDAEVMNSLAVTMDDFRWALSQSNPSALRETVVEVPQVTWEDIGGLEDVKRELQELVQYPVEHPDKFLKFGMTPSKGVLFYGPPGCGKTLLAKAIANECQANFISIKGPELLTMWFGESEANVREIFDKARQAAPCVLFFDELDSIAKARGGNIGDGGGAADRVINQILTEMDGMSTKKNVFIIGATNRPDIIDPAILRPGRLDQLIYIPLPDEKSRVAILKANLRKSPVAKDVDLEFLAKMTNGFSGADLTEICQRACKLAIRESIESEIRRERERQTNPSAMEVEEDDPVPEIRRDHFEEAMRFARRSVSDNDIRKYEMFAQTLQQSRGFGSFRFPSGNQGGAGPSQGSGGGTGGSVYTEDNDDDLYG
Data set [5] in a line: Half life in mouse plasma by LC-MS/MS analysis. It counts as ADME, cell-free.
The nature of data set [6]: Primary phase half life in human liver microsomes at 1 uM in presence of NADPH by LC-MS/MS analysis. In kind it is ADME. The note with it: read-out: alphat1/2.
Data set [7] can be described thus: Thermodynamic solubility of the compound in DPBS after 24 hrs by LC-MS/MS analysis. In kind it is physicochemical. Particulars: read-out: Therm_solubility.
Data set [8] is described as follows: Primary phase half life in mouse liver microsomes at 1 uM in presence of NADPH by LC-MS/MS analysis. It counts as ADME. Particulars: read-out: alphat1/2.
A short description of data set [9]: Half life in human plasma by LC-MS/MS analysis. It counts as ADME, cell-free.
The target in data set [10] is Transitional endoplasmic reticulum ATPase (Homo sapiens) (UniProt P55072). The data set is described as follows: Inhibition of p97 in HEK293T cells assessed as induction of ER-stress by measuring ATF3 expression up to 40 uM after 16 hrs by immunoblot analysis. In kind it is cell-based. The note with it: HEK-293T.
Data set [11] in a line: Antiproliferative activity against human MIAPaCa2 cells assessed as reduction in cell viability after 72 hrs by MTT assay. It counts as functional, cell-based. The note with it: MIA PaCa-2, 72 h.

In brackets after ≈: the same amount, converted by molar mass. Activity calls are given as the source filed them. The calls are words filed in the database; no cut-off is given here.

One may read the EC50 as the midpoint of the concentration-response curve.

As for `COCCOc1ccc(NC(=O)N(O)C2N(c3ccc(Cl)cc3)C(=O)N(CC(=O)N/N=C/C=C/c3ccc([N+](=O)[O-])o3)C2(C)C)cc1` (stereo not given), in data set [1], the Activity result was “Non-Toxic”. For the same compound, the half-life at 1 µM in data set [2] is 23.1 h; in data set [3], 16.5 h; in data set [6], 2.07 h; in data set [8] it was 1.75 h. The inhibition entry in data set [4] and in data set [10] was “Active” each time. Further, the half-life was 12.5 h in [5] and 9.5 h in data set [9]. Further, the solubility thermodynamic at 24 h in data set [7] worked out at 2.3 µM (≈ 1.54 µg/mL). For the same compound, the EC50 in data set [11] is 5.4 µM.

In the case of `COCCOc1ccc(N2C(=O)N(CC(=O)N/N=C/C=C/c3ccc([N+](=O)[O-])o3)C(C)(C)C2N(O)C(=O)Nc2ccc(Cl)cc2)cc1` (stereo not given), the Activity entry in [1] is reported as “Non-Toxic”. In addition, the half-life at 1 µM was 57.8 h in data set [2], 14.4 h in data set [3], 0.53 h in [6] and 2.32 h in [8]. Further, the inhibition result in data set [4] and in data set [10] was “Active” each time. Besides, the figures for the half-life in data set [5] and in data set [9] were 15.7 h and 17.2 h, respectively. Besides, the solubility thermodynamic at 24 h in data set [7] was 2.8 µM (≈ 1.88 µg/mL). Further, the EC50 in [11] came out at 6.3 µM.

Take `COCCOc1ccc(NC(=O)N(O)C2N(c3ccc(OCCOC)cc3)C(=O)N(CC(=O)N/N=C/C=C/c3ccc([N+](=O)[O-])o3)C2(C)C)cc1` (stereo not given): the Activity entry in data set [1] is “Non-Toxic”. In addition, the solubility thermodynamic at 24 h in data set [7] amounted to 64.2 µM (≈ 45.6 µg/mL). In data set [11], the EC50 stood at 38.4 µM.

Source of the values: ChEMBL document CHEMBL3862021, “Eeyarestatin I derivatives with improved aqueous solubility” (Bioorg Med Chem Lett, 2016).
